Results from patent US20060148796A1, “6-Substituted imidazopyrazines” (priority 2003, published 2006).

Assays:
[1] = tested on: pentagastrin-stimulated acid secretion of the perfused rat stomach; test: Secretion-inhibiting action on the perfused rat stomach (pentagastrin-stimulated acid secretion, intraduodenal administration in vivo); conditions: dose 1 μmol/kg i.d., perfused stomach of anesthetized CD rat, female
From the text: Testing of the Secretion-Inhibiting Action on the Perfused Rat Stomach
In Table A which follows, the influence of the compounds according to the invention on the pentagastrin-stimulated add secretion of the perfused rat stomach after intraduodenal administration in vivo is shown.
The abdomen of anesthetized rats (CD rat, female, 200-250 g; 1.5 g/kg Im. urethane) was opened after tracheotomy by a median upper abdominal incision and a PVC catheter was fixed transorally in the esophagus and another via the pylorus such that the ends of the tubes just projected into the gastric lumen. The catheter leading from the pylorus led outward into the right abdominal wall through a side opening.
After thorough rinsing (about 50-100 ml), warm (37° C.) physiological NaCl solution was continuously passed through the stomach (0.5 ml/min, pH 6.8-6.9; Braun-Unita I). The pH (pH meter 632, glass electrode EA 147; φ=5 mm, Metrohm) and, by titration with a freshly prepared 0.01N NaOH solution to pH 7 (Dosimat 665 Metrohm), the secreted HCl were determined in the effluent in each case collected at an interval of 15 minutes.
The gastric secretion was stimulated by continuous infusion of […] (=1.65 ml/h) of i.v. pentagastrin (left femoral vein) about 30 min after the end of the operation (.e. after determination of 2 preliminary fractions). […]

Compound	melting point [°C]	Inhibition of acid secretion (%) [1] [%]
CCc1cccc(C)c1CNc1nc(Br)cn2c(C)c(C)nc12.O=C(O)C(=O)O [Example 3, 6-Bromo-8(2-ethyl-6-methyl-benzylamino)-2,3-dimethyl-imidazo[1,2-a]pyrazine oxalate]	163	–
CCOC(=O)c1cn2c(C)c(C)nc2c(NCc2c(C)cccc2CC)n1 [Example 4, Ethyl 8-(2-ethyl-6-methyl-benzylamino)-2,3-dimethyl-imidazo[1,2-a]pyrazine-6-carboxylate]	144	–
CCc1cccc(C)c1CNc1nc(C(=O)N(C)C)cn2c(C)c(C)nc12 [Example 5, 6-(Dimethylaminocarbonyl)-8-(2-ethyl-6-methyl-benzylamino)-2,3-dimethyl-imidazo[1,2a]-pyrazine]	–	49
CCc1cccc(C)c1CNc1nc(C(=O)O)cn2c(C)c(C)nc12 [Example 6, 8-(2-Ethyl-6-methyl-benzylamino)-2,3-dimethyl-imidazo[1,2-a]pyrazine-6-carboxylic acid]	230	–
CCc1cccc(C)c1CNc1nc(C(=O)N2CCCC2)cn2c(C)c(C)nc12 [Example 7, 8-(2-Ethyl-6-methyl-benzylamino)-6-(pyrrolidinocarbonyl)-2,3-dimethyl-imidazo[1,2-a]pyrazine]	197	–
CCc1cccc(C)c1CNc1nc(CO)cn2c(C)c(C)nc12 [Example 12, 8-(2-Ethyl-6-methyl-benzylamino)-6-(hydroxymethyl)-2,3-dimethyl-imidazo[1,2-a]pyrazine]	166	–
CCc1cccc(C)c1CNc1nc(COC)cn2c(C)c(C)nc12.Cl [Example 13, 8-(2-Ethyl-6-methyl-benzylamino)-6-(methoxymethyl)-2,3-dimethyl-imidazo[1,2-a]pyrazine hydrochloride]	177	46
